Data: patent publication US9546179B2, “Heterocycle amido alkyloxy substituted quinazoline derivative and use thereof” (priority 2011, dated 2017)
pIC50: −log10 of the molar value.

Target: T1, receptor tyrosine kinase EGFR (Homo sapiens, UniProt P00533)
T1 construct: purchased Shanghai 3bio Technology Co., Ltd. Lot No. 4018780925
Assay: Inhibitory effect on receptor tyrosine kinase EGFR (ELISA, Poly(Glu, Tyr)4:1, PY99 antibody)
Type: biochemical
Conditions: ATP 4 μM, 1 hour at 37° C.
Experimental: Poly(Glu, Tyr)4:1 was diluted into 100 μg/ml by PBS without potassium. Enzyme label plate was coated with 37 μl/well at 37° C. overnight,
The liquid in the wells was removed. The plate was rinsed by T-PBS for 5 minutes, and dried at 37° C. after repeated 3 times.
The testing sample was diluted to the concentration concerned by reaction buffer solution, and added into the wells of the coated enzyme label plate. The concentration diluted should realize 1.0000 μg/ml, 0.1250 μg/ml, 0.0156 μg/ml, 0.00195 μg/ml and 0.00024 μg/ml in the 100 μl reaction.
Adding in ATP solution (4 μM of final concentration) diluted by reaction buffer solution,
Finally, the tyrosine kinase diluted by reaction buffer solution was added, and forming the reaction with 100 μl total volume.
Meanwhile, negative control wells and enzyme-free control wells were prepared. The reaction was kept in the dark wet box for 1 hour at 37° C. The plate was rinsed by T-PBS for three times after the reaction ended, and blocked by 1% BSA […] for 30 min, and then, PY99 antibody (1:1000 diluted by 0.05% PBST with 1% BSA) was added in 100 μl/well. After incubated at 37° C. for 30 minutes, the plate was rinsed by T-PBS for three times, and the goat anti-mouse IgG marked with HRP (1 mg/ml 1:1000 diluted by 0.05% PBST with 1% BSA) was then added in 100 μl/well. After incubated at 37° C. for 30 minutes, the plate was rinsed by T-PBS for three times.
Colorimetric solution OPD was added in 100 μl/well for 20 minutes' reaction in the dark side at the room temperature. Colorimetric substrate solution OPD was the solution of 0.1 mol/L citric acid-disodium hydrogen phosphate buffer (pH 5.0) with 20 mmol/L OPD and 12 mmol/L H2O2 (freshly prepared when using).
50 μl of 2M H2SO4 (2 mol/L sulfuric acid containing 0.1 mol/L sodium sulfate) was added in to terminate the reaction, and the A492 value was read with adjustable wavelength micro late enzyme-labeling instrument VERSAmax.
The inhibition rate of samples is calculated by the following formula: […]

T1 sequence (P00533 25-1210): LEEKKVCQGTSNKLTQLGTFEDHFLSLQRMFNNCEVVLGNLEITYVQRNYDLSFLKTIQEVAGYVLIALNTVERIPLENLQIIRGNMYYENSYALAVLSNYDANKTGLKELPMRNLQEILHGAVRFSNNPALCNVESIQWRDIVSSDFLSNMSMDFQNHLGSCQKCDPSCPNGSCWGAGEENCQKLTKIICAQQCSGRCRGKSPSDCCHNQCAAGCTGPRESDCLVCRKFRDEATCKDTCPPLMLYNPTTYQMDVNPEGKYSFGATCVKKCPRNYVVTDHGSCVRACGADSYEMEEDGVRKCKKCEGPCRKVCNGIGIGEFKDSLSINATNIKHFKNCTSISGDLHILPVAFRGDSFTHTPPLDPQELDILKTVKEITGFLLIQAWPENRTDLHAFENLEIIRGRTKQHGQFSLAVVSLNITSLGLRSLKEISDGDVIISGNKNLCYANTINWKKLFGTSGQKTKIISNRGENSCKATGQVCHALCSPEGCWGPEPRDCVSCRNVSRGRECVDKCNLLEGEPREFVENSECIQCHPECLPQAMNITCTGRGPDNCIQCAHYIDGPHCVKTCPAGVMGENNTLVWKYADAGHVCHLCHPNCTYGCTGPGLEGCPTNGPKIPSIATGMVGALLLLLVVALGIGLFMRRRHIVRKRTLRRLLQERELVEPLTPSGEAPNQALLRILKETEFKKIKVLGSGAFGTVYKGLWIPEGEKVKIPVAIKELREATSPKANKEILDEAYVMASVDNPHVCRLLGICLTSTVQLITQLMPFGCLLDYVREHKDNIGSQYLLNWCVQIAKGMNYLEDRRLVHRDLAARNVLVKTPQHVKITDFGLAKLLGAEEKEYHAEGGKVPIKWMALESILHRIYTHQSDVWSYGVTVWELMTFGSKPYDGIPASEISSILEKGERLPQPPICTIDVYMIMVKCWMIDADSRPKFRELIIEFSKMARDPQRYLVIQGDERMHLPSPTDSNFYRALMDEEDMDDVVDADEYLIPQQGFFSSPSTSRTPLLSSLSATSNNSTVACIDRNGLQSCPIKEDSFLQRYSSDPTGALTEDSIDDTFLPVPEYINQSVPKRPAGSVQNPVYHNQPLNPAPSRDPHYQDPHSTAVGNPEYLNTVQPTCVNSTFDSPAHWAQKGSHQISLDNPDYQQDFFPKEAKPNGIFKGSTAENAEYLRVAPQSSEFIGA

Structure (SMILES) | pIC50
C#Cc1cccc(Nc2ncnc3cc(OC)c(OCCCN4CC[C@H]5OCC[C@H]54)cc23)c1 (relative stereo) [Example 50, 4-(3′-ethynylphenylamino)-6-[3-(cis-hexahydrofuro[3,2-b]pyrrole-4-yl)-propoxy]-7-methoxyquinazoline] | 8.00 to 10.00
COc1cc2ncnc(Nc3ccc(F)c(Cl)c3)c2cc1OCCN1CC[C@H]2OCC[C@H]21 (relative stereo) [Example 54] | < 6.00
COc1cc2ncnc(Nc3ccc(F)c(Cl)c3)c2cc1OCCCN1CC[C@H]2OCC[C@H]21 (relative stereo) [Example 78, 4-(3′-chloro-4′-fluorophenylamino)-6-[3-(cis-hexahydrofuro[3,2-b]pyrrole-4-yl)-propoxy]-7-methoxyquinazoline] | 7.00 to 8.00
COc1cc2ncnc(Nc3cc(Cl)ccc3F)c2cc1OCCCN1CC2(COC2)C1 [Example 14, 4-(5′-chloro-2′-fluorophenylamino)-6-[3-(2-oxa-6-azaspiro[3.3]heptane-6-yl)-propoxy]-7-methoxyquinazoline] | 8.00 to 10.00
COc1cc2ncnc(Nc3cc(Cl)ccc3F)c2cc1OCCCN1CCC2(CCOC2)C1 (stereo not shown) [Example 15, 4-(5′-chloro-2′-fluorophenylamino)-6-[3-(2-oxa-7-azaspiro[4.4]nonane-7-yl)-propoxy]-7-methoxyquinazoline] | 7.00 to 8.00
COc1cc2ncnc(Nc3cc(Cl)ccc3F)c2cc1OCCCN1C2CCC1COC2 [Example 16, 4-(5′-chloro-2′-fluorophenylamino)-6-[3-(3-oxa-8-azabicyclo[3.2.1]octane-8-yl)-propoxy]-7-methoxyquinazolin] | 7.00 to 8.00
COc1cc2ncnc(Nc3cc(Cl)ccc3F)c2cc1OCCCN1CC2(CCOCC2)C1 [Example 18, 4-(5′-chloro-2′-fluorophenylamino)-6-[3-(7-oxa-2-azaspiro[3.5]-nonane-2-yl)-propoxy]-7-methoxyquinazoline] | 7.00 to 8.00
COc1cc2ncnc(Nc3cc(Cl)ccc3F)c2cc1OCCCN1CCC2(CCN(C(C)=O)C2)C1 (stereo not shown) [Example 19, 4-(5′-chloro-2′-fluorophenylamino)-6-[3-(7-acetyl-2,7-diazaspiro[4.4]-nonane-2-yl)-propoxy]-7-methoxyquinazoline] | 7.00 to 8.00
COc1cc2ncnc(Nc3cc(Cl)ccc3F)c2cc1OCCCN1CCC2(CC1)CNC(=O)C2 [Example 21, 4-(5′-chloro-2′-fluorophenylamino)-6-[3-(2,8-diazaspiro[4.5]decyl-3-ketone-8-yl)-propoxy]-7-methoxyquinazoline] | 7.00 to 8.00
COc1cc2ncnc(Nc3cc(Cl)ccc3F)c2cc1OCCCN1CCC2(CCNC2=O)C1 (stereo not shown) [Example 22, 4-(5′-chloro-2′-fluorophenylamino)-6-[3-(2,7-diazaspiro[4.4]nonane-1-ketone-7-yl)-propoxy]-7-methoxyquinazoline] | 7.00 to 8.00
COc1cc2ncnc(Nc3cc(Cl)ccc3F)c2cc1OCCCN1CCC2(CCN(C)C2=O)C1 (stereo not shown) [Example 23, 4-(5′-chloro-2′-fluorophenylamino)-6-[3-(2-methyl-2,7-diazaspiro[4.4]nonane-1-ketone-7-yl)-propoxy]-7-methoxyquinazoline] | 7.00 to 8.00
COc1cc2ncnc(Nc3cc(Cl)ccc3F)c2cc1OCCCN1CCC2(CC1)CC(=O)N(C)C2 [Example 24, 4-(5′-chloro-2′-fluorophenylamino)-6-[3-(2-methyl-2,8-diazaspiro[4.5]decane-3-ketone-8-yl)-propoxy]-7-methoxyquinazoline] | 7.00 to 8.00
COc1cc2ncnc(Nc3cc(Cl)ccc3F)c2cc1OCCCN1CCC2(CCC(=O)N2)CC1 [Example 25, 4-(5′-chloro-2′-fluorophenylamino)-6-[3-(1,8-diazaspiro[4.5]decane-2-ketone-8-yl)-propoxy]-7-methoxyquinazoline] | 7.00 to 8.00
COc1cc2ncnc(Nc3cc(Cl)ccc3F)c2cc1OCCCN1CCC2(CC1)CCN(C)C2=O [Example 26, 4-(5′-chloro-2′-fluorophenylamino)-6-[3-(2-methyl-2,8-diazaspiro[4.5]decane-1-ketone-8-yl)-propoxy]-7-methoxyquinazoline] | 7.00 to 8.00
COc1cc2ncnc(Nc3cc(Cl)ccc3F)c2cc1OCCCN1CC2(CNC(=O)C2)C1 [Example 27] | 7.00 to 8.00
COc1cc2ncnc(Nc3cccc(Cl)c3F)c2cc1OCCCN1CCC2(COC2)C1 [Example 28, 4-(3′-chloro-2′-fluorophenylamino)-6-[3-(2-oxa-6-azaspiro[3.4]octane-6-yl)-propoxy]-7-methoxyquinazoline] | 7.00 to 8.00

Structure (SMILES) | pIC50
COc1cc2ncnc(Nc3cccc(Cl)c3F)c2cc1OCCCN1CCC2(CCNC2=O)C1 (stereo not shown) [Example 29, 4-(3′-chloro-2′-fluorophenylamino)-6-[3-(2,7-diazaspiro[4.4]nonane-1-ketone-7-yl)-propoxy]-7-methoxyquinazoline] | 7.00 to 8.00
COc1cc2ncnc(Nc3cccc(Cl)c3F)c2cc1OCCCN1CCC2(CCN(C)C2=O)C1 (stereo not shown) [Example 30, 4-(3′-chloro-2′-fluorophenylamino)-6-[3-(2-methyl-2,7-diazaspiro[4.4]nonane-1-ketone-7-yl)-propoxy]-7-methoxyquinazoline] | 7.00 to 8.00
COc1cc2ncnc(Nc3cccc(Cl)c3F)c2cc1OCCCN1CCC2(CC1)CC(=O)N(C)C2 [Example 31, 4-(3′-chloro-2′-fluorophenylamino)-6-[3-(2-methyl-2,8-diazaspiro[4.5]decane-3-ketone-8-yl)-propoxy]-7-methoxyquinazoline] | 7.00 to 8.00
COc1cc2ncnc(Nc3cccc(Cl)c3F)c2cc1OCCCN1CCC2(CCC(=O)N2)CC1 [Example 32, 4-(3′-chloro-2′-fluorophenylamino)-6-[3-(1,8-diazaspiro[4.5]decane-2-ketone-8-yl)-propoxy]-7-methoxyquinazoline] | 7.00 to 8.00
COc1cc2ncnc(Nc3cccc(Cl)c3F)c2cc1OCCCN1CC2(CNC(=O)C2)C1 [Example 33] | 7.00 to 8.00
COc1cc2ncnc(Nc3cccc(Cl)c3F)c2cc1OCCCN1CCC2(CC1)CNC(=O)O2 [Example 34, 4-(3′-chloro-2′-fluorophenylamino)-6-[3-(1-oxa-3,8-diazaspiro[4.5]decane-2-ketone-8-yl)-propoxy]-7-methoxyquinazoline] | 8.00 to 10.00
COc1cc2ncnc(Nc3cccc(Cl)c3F)c2cc1OCCCN1CCC2(C1)CN(C)C(=O)O2 (stereo not shown) [Example 35, 4-(3′-chloro-2′-fluorophenylamino)-6-[3-(3-methyl-1-oxa-3,7-diazaspiro[4.4]nonane-2-ketone-7-yl)-propoxy]-7-methoxycquinazoline] | 8.00 to 10.00
COc1cc2ncnc(Nc3cccc(Cl)c3F)c2cc1OCCCN1CC2(CNC(=O)O2)C1 [Example 36, 4-(3′-chloro-2′-fluorophenylamino)-6-[3-(5-oxa-2,7-diazaspiro[3.4]octane-6-ketone-2-yl)-propoxy]-7-methoxyquinazoline] | 8.00 to 10.00
COc1cc2ncnc(Nc3cccc(Cl)c3F)c2cc1OCCCN1CC2(C1)CN(C)C(=O)O2 [Example 37, 4-(3′-chloro-2′-fluorophenylamino)-6-[3-(7-methyl-5-oxa-2,7-diazaspiro[3.4]octane-6-ketone-2-yl)-propoxy]-7-methoxyquinazoline] | 8.00 to 10.00
C#Cc1cccc(Nc2ncnc3cc(OC)c(OCCCN4CC5(COC5)C4)cc23)c1 [Example 38, 4-(3′-ethynylphenylamino)-6-[3-(2-oxa-6-azaspiro[3.3]heptane-6-yl)-propoxy]-7-methoxyquinazoline] | 7.00 to 8.00
C#Cc1cccc(Nc2ncnc3cc(OC)c(OCCCN4CC5(CCOCC5)C4)cc23)c1 [Example 39, 4-(3′-ethynylphenylamino)-6-[3-(7-oxa-2-azaspiro[3.5]nonane-2-yl)-propoxy]-7-methoxyquinazoline] | 7.00 to 8.00
C#Cc1cccc(Nc2ncnc3cc(OC)c(OCCCN4CCC5(CCOC5)C4)cc23)c1 (stereo not shown) [Example 40, 4-(3′-ethynylphenylamino)-6-[3-(2-oxa-7-azaspiro[4.4]-nonane-7-yl)-propoxy]-7-methoxyquinazoline] | 7.00 to 8.00
C#Cc1cccc(Nc2ncnc3cc(OC)c(OCCCN4CCC5(CCOCC5)C4)cc23)c1 [Example 41, 4-(3′-ethynylphenylamino)-6-[3-(8-oxa-2-azaspiro[4.5]decane-2-yl)-propoxy]-7-methoxyquinazoline] | 6.00 to 7.00
C#Cc1cccc(Nc2ncnc3cc(OC)c(OCCCN4C5CCC4COC5)cc23)c1 [Example 42, 4-(3′-ethynylphenylamino)-6-[3-(3-oxa-8-azabicyclo[3.2.1]octane-8-yl)-propoxy]-7-methoxyquinazoline] | 6.00 to 7.00
C#Cc1cccc(Nc2ncnc3cc(OC)c(OCCCN4CCC5(CC4)CNC(=O)C5)cc23)c1 [Example 43, 4-(3′-ethynylphenylamino)-6-[3-(2,8-diazaspiro[4.5]decane-3-ketone-8-yl)-propoxy]-7-methoxyquinazoline] | 7.00 to 8.00
